In US6683107B2, “Furans, benzofurans, and thiophenes useful in the treatment of insulin resistance and hyperglycemia” (Wyeth, priority 1998, dated 2004):
Structures can show the parent of a compound that is named as a salt.

What was measured:
[1] = molecular target: T1, human recombinant PTP1B (hPTP1B) (Homo sapiens, UniProt P18031); assay: Inhibition of tri-phosphorylated insulin receptor dodecaphosphopeptide dephosphorylation by hPTP1B (malachite green phosphate detection); type: biochemical; settings: for IC50: recombinant PTP1B, insulin receptor 1142-1153 triphosphopeptide substrate, 37° C., 30 min, pH 7.4
T1 construct: made in house
T1 sequence (P18031 1-435): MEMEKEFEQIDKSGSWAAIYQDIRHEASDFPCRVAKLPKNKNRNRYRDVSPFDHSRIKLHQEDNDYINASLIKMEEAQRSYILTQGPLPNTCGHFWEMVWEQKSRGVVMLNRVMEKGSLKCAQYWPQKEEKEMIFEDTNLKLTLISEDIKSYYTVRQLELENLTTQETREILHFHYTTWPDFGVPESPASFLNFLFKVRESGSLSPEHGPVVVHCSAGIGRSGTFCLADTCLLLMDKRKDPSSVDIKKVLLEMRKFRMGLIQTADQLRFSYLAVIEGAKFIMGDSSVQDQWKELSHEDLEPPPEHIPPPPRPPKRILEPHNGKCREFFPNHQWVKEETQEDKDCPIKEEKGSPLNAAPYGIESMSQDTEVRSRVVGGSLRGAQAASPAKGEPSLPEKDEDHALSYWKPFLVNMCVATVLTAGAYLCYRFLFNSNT

In the case of “4-[4-(2-Butyl-benzofuran-3-carbonyl)-phenylsulfonyl]-2-hydroxy-benzoic acid [Example 16]”, the “% inhibition @ 0.5 μM” value [1] is reported as 22.81% inhibition @ 0.5 μM.

With CCc1oc2ccccc2c1C(=O)c1cc(-c2ccccc2)c(OS(=O)(=O)c2ccc(C(=O)O)c(O)c2)c(-c2ccccc2)c1 (as salt: sodium) [Example 6, 4-[5′-(2-Ethyl-benzofuran-3-carbonyl)-[1,1′: 3′,1″]terphenyl-2′-yloxysulfonyl-]2-hydroxy-benzoic acid sodium salt] the melting point was 211 to 212 °C.

In the case of CCc1oc2ccccc2c1C(=O)c1cc(Br)c(OS(=O)(=O)c2ccc(C(=O)O)c(O)c2)c(Br)c1 [Example 1, 4-[2,6-Dibromo-4-(2-ethyl-benzofuran-3-carbonyl)-phenoxysulfonyl]-2-hydroxy-benzoic acid], the IC50 [1] is reported as 251 nM and the melting point is reported as 173 °C.

CCCCc1oc2ccccc2c1C(=O)c1cc(-c2ccccc2)c(OS(=O)(=O)c2ccc(C(=O)O)c(O)c2)c(-c2ccccc2)c1 [Example 2, 4-[5′-(2-Butyl-benzofuran-3-carbonyl)-[1,1′; 3′1″]terphenyl-2′-yloxysulfonyl]-2-hydroxy-benzoic acid] gave an IC50 [1] of 130 nM and a melting point of 190 to 197 °C.

CCc1oc2ccccc2c1C(=O)c1cc(C)c(OS(=O)(=O)c2ccc(C(=O)O)c(O)c2)c(C)c1 [Example 3, 4-[4-(2-Ethyl-benzofuran-3-carbonyl)-2,6-dimethyl-phenoxysulfonyl]-2-hydroxy-benzoic acid] gave an IC50 [1] of 421 nM and a melting point of 166 to 167 °C.

For CCc1oc2ccccc2c1C(=O)c1cc(C(C)C)c(OS(=O)(=O)c2ccc(C(=O)O)c(O)c2)c(C(C)C)c1 [Example 4, 4-[4-(2-Ethyl-benzofuran-3-carbonyl)-2,6-diisopropyl-phenoxysulfonyl]-2-hydroxy-benzoic acid], the IC50 [1] was 559 nM and the melting point was 200 to 201 °C.

In the case of Cc1oc(Cc2ccccc2)c(C(=O)c2cc(C(C)C)c(OS(=O)(=O)c3ccc(C(=O)O)c(O)c3)c(C(C)C)c2)c1C [Example 5, 4-[4-(2-Benzyl-4,5-dimethyl-furan-3-carbonyl)-2,6-diisopropyl-phenoxysulfonyl]-2-hydroxy-benzoic acid], the IC50 [1] is reported as 83 nM and the melting point is reported as 142 to 143 °C.

Work on CCc1oc2ccccc2c1C(=O)c1cc(-c2ccccc2)c(OS(=O)(=O)c2ccc(C(=O)O)c(O)c2)c(-c2ccccc2)c1 [Example 6, 4-[5′-(2-Ethyl-benzofuran-3-carbonyl)-[1,1′: 3′,1″]terphenyl-2′-yloxysulfonyl-]2-hydroxy-benzoic acid sodium salt] yielded an IC50 [1] of 256 nM.

In the case of Cc1cc(C(=O)c2c(Cc3ccccc3)oc(C)c2C)cc(-c2ccccc2)c1OS(=O)(=O)c1ccc(C(=O)[O-])c(O)c1.[Na+] [Example 7, 4-[5-(2-Benzyl4,5-dimethyl-furan-3-carbonyl)-3-methyl-biphenyl-2-yloxysulfonyl]-2-hydroxy-benzoic acid sodium salt], the IC50 [1] is reported as 180 nM and the melting point is reported as 187 to 190 °C.

Cc1oc(Cc2ccc3ccccc3c2)c(C(=O)c2cc(C(C)C)c(OS(=O)(=O)c3ccc(C(=O)O)c(O)c3)c(C(C)C)c2)c1C [Example 8, 4-[4-(4,5-Dimethyl-2-naphthalen-2-ylmethyl-furan-3-carbonyl)-2,6-diisopropyl-phenoxysulfonyl]-2-hydroxy-benzoic acid] gave an IC50 [1] of 75 nM and a melting point of 130 to 135 °C.

Compound Cc1oc(Cc2ccccc2Br)c(C(=O)c2cc(C(C)C)c(OS(=O)(=O)c3ccc(C(=O)O)c(O)c3)c(C(C)C)c2)c1C [Example 9, 4-{4-[2-(2-Bromo-benzyl)-4.5-dimethyl-furan-3-carbonyl]-2.6-diisopropyl-phenoxysulfonyl}-2-hydroxy-benzoic acid] has an IC50 [1] of 83 nM and a melting point of 90 to 95 °C.

In the case of Cc1oc(Cc2cccc(Br)c2)c(C(=O)c2cc(C(C)C)c(OS(=O)(=O)c3ccc(C(=O)O)c(O)c3)c(C(C)C)c2)c1C [Example 10, 4-{4-[2-(3-Bromo-benzyl)-4.5-dimethyl-furan-3-carbonyl]-2.6-diisopropylphenoxysulfonyl}-2-hydroxy-benzoic acid], the IC50 [1] is reported as 226 nM and the melting point is reported as 148 °C.

Work on Cc1oc(Cc2ccc(Br)cc2)c(C(=O)c2cc(C(C)C)c(OS(=O)(=O)c3ccc(C(=O)O)c(O)c3)c(C(C)C)c2)c1C [Example 11, 4-{4-[2-(4-Bromo-benzyl)4,5-dimethyl-fuiran-3-carbonyl]-2,6-diisopropyl-phenoxysulfonyl}-2-hydroxy-benzoic acid] yielded an IC50 [1] of 99 nM and a melting point of 165 to 168 °C.

O=C(O)c1ccc(S(=O)(=O)Oc2ccc(CCc3c(Cc4ccccc4)sc4ccccc34)cc2)cc1O [Example 12, 4-{4-[2-(2-Benzyl-benzo[b]thiophen-3-yl)thyl]-phenoxysulfonyl}-2-hydroxy-benzoic acid] showed an IC50 [1] of 183 nM and a melting point of 57 to 59 °C.

With Cc1oc(Cc2ccc(Br)cc2)c(C(=O)c2ccc(OS(=O)(=O)c3ccc(C(=O)O)c(O)c3)c(C3CCCC3)c2)c1C [Example 13, 4-{4-[2-(4-Bromo-benzyl)4,5-dimethyl-furan-3-carbonyl]-2-cyclopentyl-phenoxysulfonyl}-2-hydroxy-benzoic acid] the IC50 [1] was 267 nM and the melting point was 188 to 192 °C.

For CCCCc1oc2ccccc2c1CCc1ccc(OS(=O)(=O)c2ccc(C(=O)O)c(O)c2)cc1 [Example 14, 4-{4-[2-(2-Butyl-benzofuran-3-yl)-ethyl]-phenoxysulfonyl}-2-hydroxy-benzoic acid], the IC50 [1] was 60 nM and the melting point was 93 to 95 °C.

Compound CCCCc1oc2ccccc2c1CNc1ccc(OS(=O)(=O)c2ccc(C(=O)O)c(O)c2)cc1 [Example 15, 4-{4-[(2-Butyl-benzofuran-3-ylmethyl)-amino]-phenoxysulfonyl}-2-hydroxy-benzoic acid] has an inhibition at 1 µM ([1]; compound at 1.0 μM, percent of phosphatase control) of 28.8% and a melting point of 75 to 77 °C.

For Cc1oc(Cc2ccccc2)c(C(=O)c2ccc(OS(=O)(=O)c3ccc(C(=O)O)c(O)c3)c(C3CCCC3)c2)c1C [Example 17, 4-[4-(2-Benzyl-4,5-dimethyl-furan-3-carbonyl)-2-cyclopentyl-phenoxysulfonyl]-2-hydroxy-benzoic acid], the IC50 [1] was 643 nM and the melting point was 80 to 85 °C.

In the case of Cc1sc(Cc2ccccc2)c(C(=O)c2ccc(OS(=O)(=O)c3ccc(C(=O)O)c(O)c3)c(C3CCCC3)c2)c1C [Example 18, 4-[4-(2-Benzyl-4,5-dimethyl-thiophene-3-carbonyl)-2-cyclopentyl-phenoxysulfonyll-]2-hydroxy-benzoic acid], the IC50 [1] is reported as 404 nM and the melting point is reported as 70 to 77 °C.

In the case of CCc1cc(C(=O)c2c(Cc3ccccc3)oc(C)c2C)cc(CC)c1OS(=O)(=O)c1ccc(C(=O)O)c(O)c1 [Example 19, 4-[4-(2-Benzyl-4,5-dimethyl-furan-3-carbonyl)-2.6-diethyl-phenoxysulfonyl]-2-hydroxy-benzoic acid], the IC50 [1] is reported as 633 nM and the melting point is reported as 143 to 147 °C.

With Cc1sc(Cc2ccc(Br)cc2)c(C(=O)c2ccc(OS(=O)(=O)c3ccc(C(=O)O)c(O)c3)c(C3CCCC3)c2)c1C [Example 20, 4-{4-[2-(4-Bromo-benzyl)4.5-dimethyl-thiophene-3-carbonyl]-2-cyclopentylphenoxysulfonyl}-2-hydroxy-benzoic acid] the IC50 [1] was 148 nM and the melting point was 165 to 170 °C.

With “Ammonium molybdate tetrahydrate [reference compound]” the IC50 [1] was 8700 nM.
